Like-named read-outs stand apart in the source and are kept apart here.
Experiments:
[1] = tested on: Beet Armyworm (Spodoptera exigua, LAPHEG); test: Insecticidal test for beet armyworm (BAW), 128-well diet tray assay; type: in vivo; conditions: 168 h, read-out: BAW rating, % Control (or Mortality)
Method: Insecticidal Test for Beet Armyworm (Spodoptera exigua, LAPHEG) (“BAW”)
Bioassays on beet armyworm (BAW; Spodoptera exigua: Lepidoptera) are conducted using a 128-well diet tray assay. One to five second instar BAW larvae are placed in each well (3 mL) of the diet tray that had been previously filled with 1 mL of artificial diet to which 50 μg/cm^2 of the test compound (dissolved in 50 μL of 90:10 acetone-water mixture) had been applied (to each of eight wells) and then allowed to dry. Trays are covered with a clear self-adhesive cover, vented to allow gas exchange, and held at 25° C., 14:10 light-dark for five to seven days. Percent mortality is recorded for the larvae in each well; activity in the eight wells is then averaged. In the reporting of the results, the “BAW & CL Rating Table” was used.

[2] = tested on: Cabbage Looper (Trichloplusia ni, TRIPNI); test: Insecticidal test for cabbage looper (CL), 128-well diet tray assay; type: in vivo; conditions: Trichoplusia ni, 168 h, read-out: CL rating, % Control (or Mortality)
Method: Insecticidal Test for Cabbage Looper (Trichloplusia ni, TRIPNI) (“CL”)
Bioassays on cabbage looper (CL; Trichloplusia ni: Lepidoptera) are conducted using a 128-well diet tray assay. One to five second instar CL larvae are placed in each well (3 mL) of the diet tray that had been previously filled with 1 mL of artificial diet to which 50 μg/cm^2 of the test compound (dissolved in 50 μL of 90:10 acetone-water mixture) had been applied (to each of eight wells) and then allowed to dry. Trays are covered with a clear self-adhesive cover, vented to allow gas exchange, and held at 25° C., 14:10 light-dark for five to seven days. Percent mortality is recorded for the larvae in each well; activity in the eight wells is then averaged. In the reporting of the results, the “BAW & CL Rating Table” was used.

[3] = 50 μg/cm^2 on artificial diet, second instar larvae, five to seven days, 25° C.

SMILES | mortality at 50 µg/cm2 [1, 3] [%] | mortality at 50 µg/cm2 [2, 3] [%] | mortality at 50 µg/cm2 [1] [%] | mortality at 50 µg/cm2 [2] [%]
Cc1ccc(C(C)C)c(N2C(=O)CS/C2=N\C(=O)OCCc2ccc(-c3ncn(-c4ccc(OC(F)(F)F)cc4)n3)cc2)c1 [A1, 4-(1-(4-(trifluoromethoxy)phenyl)-1H-1,2,4-triazol-3-yl)phenethyl (Z)-(3-(2-isopropyl-5-methylphenyl)-4-oxothiazolidin-2-ylidene)carbamate] | 50 to 100 | 50 to 100 |  | 
Cc1ccc(C(C)C)c(N2C(=O)CS/C2=N\C(=O)Oc2ccc(-c3ncn(-c4ccc(OC(F)(F)F)cc4)n3)cc2)c1 [A3, 4-(1-(4-(Trifluoromethoxy)phenyl)-1H-1,2,4-triazol-3-yl)phenyl (Z)-(3-(2-isopropyl-5-methylphenyl)-4-oxothiazolidin-2-ylidene)carbamate] |  |  | 0 | 0
Cc1ccc(C(C)C)c(N2C(=O)CS/C2=N\C(=O)OCC(F)(F)c2ccc(-c3ncn(-c4ccc(OC(F)(F)F)cc4)n3)cc2)c1 [A4, 2,2-difluoro-2-(4-(1-(4-(trifluoromethoxy)phenyl)-1H-1,2,4-triazol-3-yl)phenyl)ethyl (Z)-(3-(2-isopropyl-5-methylphenyl)-4-oxothiazolidin-2-ylidene)carbamate] | 50 to 100 | 50 to 100 |  | 
Cc1ccc(C(C)C)c(N2C(=O)CS/C2=N\C(=O)OCC(F)c2ccc(-c3ncn(-c4ccc(OC(F)(F)F)cc4)n3)cc2)c1 (stereo not shown) [A20, 2-fluoro-2-(4-(1-(4-(trifluoromethoxy)phenyl)-1H-1,2,4-triazol-3-yl)phenyl)ethyl (Z)-(3-(2-isopropyl-5-methylphenyl)-4-oxothiazolidin-2-ylidene)carbamate] | 50 to 100 | 50 to 100 |  | 
Cc1ccc(OCC(F)(F)F)c(N2C(=O)CS/C2=N\C(=O)OCC(F)c2ccc(-c3ncn(-c4ccc(OC(F)(F)F)cc4)n3)cc2)c1 (stereo not shown) [A21, 2-Fluoro-2-(4-(1-(4-(trifluoromethoxy)phenyl)-1H-1,2,4-triazol-3-yl)phenyl)ethyl (Z)-(3-(5-methyl-2-(2,2,2-trifluoroethoxy)phenyl)-4-oxothiazolidin-2-ylidene)carbamate] | 50 to 100 | 50 to 100 |  | 
O=C(/N=C1\SCC(=O)N1c1cc(Cl)ccc1OCC(F)(F)F)OCC(F)c1ccc(-c2ncn(-c3ccc(OC(F)(F)F)cc3)n2)cc1 (stereo not shown) [A22, 2-Fluoro-2-(4-(1-(4-(trifluoromethoxy)phenyl)-1H-1,2,4-triazol-3-yl)phenyl)ethyl (Z)-(3-(5-chloro-2-(2,2,2-trifluoroethoxy)phenyl)-4-oxothiazolidin-2-ylidene)carbamate] | 50 to 100 | 50 to 100 |  | 
CC(C)c1ccc(Cl)cc1N1C(=O)CS/C1=N\C(=O)OCC(F)c1ccc(-c2ncn(-c3ccc(OC(F)(F)F)cc3)n2)cc1 (stereo not shown) [A23, 2-Fluoro-2-(4-(1-(4-(trifluoromethoxy)phenyl)-1H-1,2,4-triazol-3-yl)phenyl)ethyl (Z)-(3-(5-chloro-2-isopropylphenyl)-4-oxothiazolidin-2-ylidene)carbamate] | 50 to 100 | 50 to 100 |  | 
CC(C)c1ccccc1N1C(=O)CS/C1=N\C(=O)OCC(F)c1ccc(-c2ncn(-c3ccc(OC(F)(F)C(F)(F)F)cc3)n2)cc1 (stereo not shown) [A24, 2-Fluoro-2-(4-(1-(4-(perfluoroethoxy)phenyl)-1H-1,2,4-triazol-3-yl)phenyl)ethyl (Z)-(3-(2-isopropylphenyl)-4-oxothiazolidin-2-ylidene)carbamate] | 50 to 100 | 50 to 100 |  | 
CC(C)c1ccc(Cl)cc1N1C(=O)CS/C1=N\C(=O)OCC(F)c1ccc(-c2ncn(-c3ccc(OC(F)(F)C(F)(F)F)cc3)n2)cc1 (stereo not shown) [A25, 2-Fluoro-2-(4-(1-(4-(perfluoroethoxy)phenyl)-1H-1,2,4-triazol-3-yl)phenyl)ethyl (Z)-(3-(5-chloro-2-isopropylphenyl)-4-oxothiazolidin-2-ylidene)carbamate] | 50 to 100 | 0 to 50 |  | 
COCc1ccccc1N1C(=O)CS/C1=N\C(=O)OCCc1ccc(-c2ncn(-c3ccc(OC(F)(F)F)cc3)n2)cc1 [A27, 4-(1-(4-(trifluoromethoxy)phenyl)-1H-1,2,4-triazol-3-yl)phenethyl (Z)-(3-(2-(methoxymethyl)phenyl)-4-oxothiazolidin-2-ylidene)carbamate] | 50 to 100 | 50 to 100 |  | 
CCC(C)c1ccc(OC)cc1N1C(=O)CS/C1=N\C(=O)OCCc1ccc(-c2ncn(-c3ccc(OC(F)(F)F)cc3)n2)cc1 (stereo not shown) [A28, 4-(1-(4-(Trifluoromethoxy)phenyl)-1H-1,2,4-triazol-3-yl)phenethyl (Z)-(3-(2-(sec-butyl)-5-methoxyphenyl)-4-oxothiazolidin-2-ylidene)carbamate] | 50 to 100 | 50 to 100 |  | 
O=C(/N=C1\SCC(=O)N1c1cc(Cl)ccc1OC(F)(F)F)OCCc1ccc(-c2ncn(-c3ccc(OC(F)(F)F)cc3)n2)cc1 [A29, 4-(1-(4-(Trifluoromethoxy)phenyl)-1H-1,2,4-triazol-3-yl)phenethyl (Z)-(3-(5-chloro-2-(trifluoromethoxy)phenyl)-4-oxothiazolidin-2-ylidene)carbamate] | 50 to 100 | 50 to 100 |  | 
O=C(/N=C1\SCC(=O)N1c1cc(Cl)ccc1OCC(F)(F)F)OCCc1ccc(-c2ncn(-c3ccc(OC(F)(F)F)cc3)n2)cc1 [A30, 4-(1-(4-(Trifluoromethoxy)phenyl)-1H-1,2,4-triazol-3-yl)phenethyl (Z)-(3-(5-chloro-2-(2,2,2-trifluoroethoxy)phenyl)-4-oxothiazolidin-2-ylidene)carbamate] | 50 to 100 | 50 to 100 |  | 
Cc1ccc(OCC(F)(F)F)c(N2C(=O)CS/C2=N\C(=O)OCCc2ccc(-c3ncn(-c4ccc(OC(F)(F)F)cc4)n3)cc2)c1 [A31, 4-(1-(4-(Trifluoromethoxy)phenyl)-1H-1,2,4-triazol-3-yl)phenethyl (Z)-(3-(5-methyl-2-(2,2,2-trifluoroethoxy)phenyl)-4-oxothiazolidin-2-ylidene)carbamate] | 50 to 100 | 50 to 100 |  | 
CCc1cccc(C)c1N1C(=O)CS/C1=N\C(=O)OCCc1ccc(-c2ncn(-c3ccc(OC(F)(F)F)cc3)n2)cc1 [A32, 4-(1-(4-(Trifluoromethoxy)phenyl)-1H-1,2,4-triazol-3-yl)phenethyl (Z)-(3-(2-ethyl-6-methylphenyl)-4-oxothiazolidin-2-ylidene)carbamate] | 0 | 50 to 100 |  | 
O=C(/N=C1\SCC(=O)N1c1cccc2c1CCCC2)OCCc1ccc(-c2ncn(-c3ccc(OC(F)(F)F)cc3)n2)cc1 [A33, 4-(1-(4-(Trifluoromethoxy)phenyl)-1H-1,2,4-triazol-3-yl)phenethyl (Z)-(4-oxo-3-(5,6,7,8-tetrahydronaphthalen-1-yl)thiazolidin-2-ylidene)carbamate] | 0 | 50 to 100 |  | 
CC(C)c1ccccc1N1C(=O)CS/C1=N\C(=O)OCC(F)c1ccc(-c2ncn(-c3ccc(OC(F)(F)F)cc3)n2)cc1 (stereo not shown) [A34, 2-Fluoro-2-(4-(1-(4-(trifluoromethoxy)phenyl)-1H-1,2,4-triazol-3-yl)phenyl)ethyl (Z)-(3-(2-isopropylphenyl)-4-oxothiazolidin-2-ylidene)carbamate] | 50 to 100 | 50 to 100 |  | 
CCC(C)Oc1ccc(C)cc1N1C(=O)CS/C1=N\C(=O)OCCc1ccc(-c2ncn(-c3ccc(OC(F)(F)F)cc3)n2)cc1 (stereo not shown) [A35, 4-(1-(4-(Trifluoromethoxy)phenyl)-1H-1,2,4-triazol-3-yl)phenethyl (Z)-(3-(2-(sec-butoxy)-5-methylphenyl)-4-oxothiazolidin-2-ylidene)carbamate] | 50 to 100 | 50 to 100 |  | 
O=C(/N=C1\SCC(=O)N1c1cc(Cl)ccc1OC(F)(F)F)OCC(F)c1ccc(-c2ncn(-c3ccc(OC(F)(F)F)cc3)n2)cc1 (stereo not shown) [A36, 2-Fluoro-2-(4-(1-(4-(trifluoromethoxy)phenyl)-1H-1,2,4-triazol-3-yl)phenyl)ethyl (Z)-(3-(5-chloro-2-(trifluoromethoxy)phenyl)-4-oxothiazolidin-2-ylidene)carbamate] | 50 to 100 | 50 to 100 |  | 
COc1ccc(N2C(=O)CS/C2=N\C(=O)OCC(F)c2ccc(-c3ncn(-c4ccc(OC(F)(F)F)cc4)n3)cc2)c(C)c1 (stereo not shown) [A37, 2-Fluoro-2-(4-(1-(4-(trifluoromethoxy)phenyl)-1H-1,2,4-triazol-3-yl)phenyl)ethyl (Z)-(3-(4-methoxy-2-methylphenyl)-4-oxothiazolidin-2-ylidene)carbamate] | 0 | 50 to 100 |  | 

— patent US11297838B2, “Pesticidal compositions and methods” (CORTEVA AGRISCIENCE LLC, priority 2018, dated 2022)
